PMC7764601 (Molecules, 2020)
Where “and” joins values, the source holds several entries; their conditions need not be identical. Identical values can stand only once. Like-named read-outs stand apart in the source and are kept apart here. Marks after values point to notes of the source that are not given here.

Experiments:
mice [1] = conditions: cited from earlier work
mice [2] = tested on: mice; design: method as in PMID 11234340, PMID 12484538, PMID 15652370; conditions: cited from earlier work; for % Inh. of locomotor activity: series 1
[3] = biological target: T1, µ receptor of the rat cerebral cortex (Rattus norvegicus, UniProt P33535); experiment: Displacement of [3H-DHM] from µ receptor binding sites of rat cerebral cortex; conditions: read-out: Dihydromorphine [3H-DHM] Ki
T1 construct: from tissue; host or cells: rat cerebral cortex

mice [4] = tested on: mice; design: method as in PMID 11234340, PMID 12484538, PMID 15652370; conditions: series 1, cited from earlier work
mice [5] = experiment: Spontaneous locomotor activity in mice (photoresistor actometers); assay type: in vivo; conditions: for ED50: confidence limits in parentheses, read-out: ED50 (mg/kg) ± SEM, spontaneous locomotor activity; for Number of impulses ± SEM (30min): i.p.
Procedure: (§1) The experiments were carried out on male albino Swiss mice (body weight 18–26 g). All of the animals were housed at constant humidity (60%) and temperature (25 °C) and kept on a 12 h light/dark cycle. Animals were fed a standard pellet diet with free access to tap water. All procedures were conducted according to Animal Care and Use Committee guidelines, and approved by the Ethical Committee of Jagiellonian University, Kraków.
(§2) Control and experimental groups consisted of 6–8 animals each. The investigated compounds were administered intraperitoneally as a suspension in 0.5% methylcellulose in a constant volume of 10 mL/kg.
Spontaneous locomotor activity in mice was measured in circular photoresistoractometers (32 cm in diameter). […] Thirty minutes after the injection of the investigated compounds, mice were placed in the actometers for 30 min. Each crossing of the light beam was recorded automatically. The amount of impulses was noted after 30 min.

mice [6] = experiment: Thiopental anesthesia (thiopental-induced sleep); assay type: in vivo; conditions: for Prolongation (%) of thiopental anesthesia / Duration of Anesthesia ± SEM: i.p.; for Duration of Anesthesia ± SEM: thiopental
Description: The pilot biological studies for imides 9 and 11 were supplemented with the determination of the effect of the intraperitoneal administration of the test compounds on the duration of thiopental-induced sleep. The mechanism and the degree of crossing the blood–brain barrier has not been precisely defined. The observed sedative effects may indicate good penetration of compounds into the central nervous system, which, however, has not been confirmed.
as §2

in vivo = assay type: in vivo; conditions: male, albino Swiss, mouse, in vivo, ip; mice, intraperitoneal, mortality after 24 h; confidence limits in parentheses
Procedure: as §1, §2

mice [7] = experiment: “Hot plate” test in mice; assay type: in vivo; conditions: hot plate, mice
Procedure: as §1, §2
(§3) The statistical significance was calculated using a Student’s t-test. The ED50 values and their confidence limits were calculated according to the method of Litchfield and Wilcoxon.
(§4) Pain reactivity was measured in two tests: “hot plate” test (according to the method of Eddy and Leimbach) and “writhing” test in mice (according to Hendershot and Forsaith).
Animals were placed individually on the metal plate, heated to 55 ± 1 °C. The latency time (s) to the pain reaction (licking of the hind paws or jumping) was recorded by a stop-watch. A cutoff time of 45 s was used to prevent tissue damage.

mice [8] = experiment: “Writhing” test in mice (phenylbenzoquinone); assay type: in vivo; conditions: for ED50: Mus musculus, ip, read-out: ED50 (mg/kg) ± SEM, writhing test
Procedure: as §1, §2, §3, §4
Then, after 25 min, the irritant (phenylbenzoquinone, 0.02% solution, ethanol-water, 5:95) was also administered intraperitoneally in a constant volume of 0.25 mL. Five min after the application of the irritant,a 10 min long period of observation started, in which the number of writhing episodes was counted.
The analgesic effect of individual doses was expressed in percent:(1) % Analgesic effect=100−∑ of writing incidents in experimental group/∑ of writhing incidents in control group×100

[9] = Mus musculus, ip, dose 25 mg/kg, read-out: Degree of motor inhibition (%)
[10] = Mus musculus, ip, dose 50 mg/kg, read-out: Degree of motor inhibition (%)
[11] = Mus musculus, ip, 0.5 h, dose 100 mg/kg, read-out: Prolonged Time (%)
[12] = Mus musculus, ip, 0.5 h, dose 200 mg/kg, read-out: Prolonged Time (%)
[13] = confidence limits in parentheses
[14] = Mus musculus, ip, dose 100 mg/kg, read-out: Degree of motor inhibition (%)
[15] = Mus musculus, ip, dose 200 mg/kg, read-out: Degree of motor inhibition (%)

T1 sequence (P33535 whole entry): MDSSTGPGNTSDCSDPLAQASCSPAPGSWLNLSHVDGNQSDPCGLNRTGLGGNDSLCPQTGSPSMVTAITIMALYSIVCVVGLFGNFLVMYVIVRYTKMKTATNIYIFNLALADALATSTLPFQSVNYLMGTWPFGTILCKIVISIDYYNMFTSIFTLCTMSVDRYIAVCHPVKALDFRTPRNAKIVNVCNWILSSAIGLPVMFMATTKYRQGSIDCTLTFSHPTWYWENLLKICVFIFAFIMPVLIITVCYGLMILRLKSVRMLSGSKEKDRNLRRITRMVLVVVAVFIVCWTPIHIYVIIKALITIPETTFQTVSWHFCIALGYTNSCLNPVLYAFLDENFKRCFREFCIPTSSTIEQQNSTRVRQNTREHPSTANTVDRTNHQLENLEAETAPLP

Compound	Ki [3] [µM]	ED50 (mice [5]; Mus musculus, ip) [mg/kg]	inhibition at 25 mg/kg (mice [5]; [9]) [%]	inhibition at 50 mg/kg (mice [5]; [10]) [%]	Number of impulses ± SEM (30min) (mice [5]; dose 25 mg/kg)	Number of impulses ± SEM (30min) (mice [5]; dose 50 mg/kg)	LD50 at 24 h (in vivo) [mg/kg]	change in vivo at 100 mg/kg (mice [7]; [11]) [%]	change in vivo at 200 mg/kg (mice [7]; [12]) [%]	Time of Reaction to Pain Stimulus (s) ± SEM (mice [7]; dose 100 mg/kg) [s]	Time of Reaction to Pain Stimulus (s) ± SEM (mice [7]; dose 200 mg/kg) [s]	ED50 (mice [8]; [13]) [mg/kg]	Mean no. of writhing ± SEM (mice [8]; i.p., dose 12.5 mg/kg)	Mean no. of writhing ± SEM (mice [8]; i.p., dose 50 mg/kg)	inhibition at 100 mg/kg (mice [5]; [14]) [%]	inhibition at 200 mg/kg (mice [5]; [15]) [%]	Number of impulses ± SEM (30min) (mice [5]; dose 100 mg/kg)	Number of impulses ± SEM (30min) (mice [5]; dose 200 mg/kg)	Mean no. of writhing ± SEM (mice [8]; i.p., dose 25 mg/kg)	Mean no. of writhing ± SEM (mice [8]; i.p., dose 100 mg/kg)	also measured
COc1ccccc1N1CCN(CCCN2C(=O)c3cc(C)nc(OC)c3C2=O)CC1 [Compound 1I]	30.8 ± 47.8																				ED50, writhing test (mice [1]; compounds obtained previously (series 1 and 2)): 0.67 mg/kg; % Inh. of locomotor activity (mice [2]; dose 12.5 mg/kg): 53.91%; % Inh. of locomotor activity (mice [2]; dose 25 mg/kg): 72.77%; % Inh. of locomotor activity (mice [2]; dose 50 mg/kg): 76.69%; ED50, influence on the locomotor activity (mice [2]; imides described previously (series 1)): 11.8 mg/kg; Thiopental Anesthesia % Prolong. (mice [4]; dose 12.5 mg/kg): 123.3%; Thiopental Anesthesia % Prolong. (mice [4]; dose 25 mg/kg): 140.3%; Thiopental Anesthesia % Prolong. (mice [4]; dose 50 mg/kg): 207.2%
COc1nc(C)cc2c1C(=O)N(CCCN1CCN(c3cccc(Cl)c3)CC1)C2=O [Compound 1J]	> 100																				ED50, writhing test (mice [1]; imides described previously): 8.8 mg/kg
CCOc1nc(C)cc2c1C(=O)N(CCCN1CCN(c3cccc(Cl)c3)CC1)C2=O [Compound 2J]	> 100																				ED50, writhing test (mice [1]; imides described previously): 8.7 mg/kg
COc1ccccc1N1CCN(CCN2C(=O)c3cc(C)nc(OC)c3C2=O)CC1 [Compound 11]		19.7	55.9	68.7	199.1 ± 48	141 ± 63	> 2000	23	50.7	24.0 ± 5.0	29.4 ± 5.0	3.67	4.3 ± 1.1	1.4 ± 0.6							inhibition at 6.25 mg/kg (mice [5]; Mus musculus, ip, dose 6.25 mg/kg, read-out: Degree of motor inhibition (%)): 28.2%; inhibition at 12.5 mg/kg (mice [5]; Mus musculus, ip, dose 12.5 mg/kg, read-out: Degree of motor inhibition (%)): 55.4%; Number of impulses ± SEM (30min) (mice [5]; dose 6.25 mg/kg): 324 ± 49; Number of impulses ± SEM (30min) (mice [5]; dose 12.5 mg/kg): 201 ± 74; Prolongation (%) of thiopental anesthesia (mice [6]; dose 12.5 mg/kg): 36.3%; Prolongation (%) of thiopental anesthesia (mice [6]; dose 25 mg/kg): 16.11%; Prolongation (%) of thiopental anesthesia (mice [6]; dose 50 mg/kg): 140.8 *** % and 140.8%; effect on duration of thiopental anesthesia (in words) (mice [6]; mouse, in vivo): extended the duration of thiopental anesthesia; Duration of Anesthesia ± SEM (mice [6]; dose 12.5 mg/kg): 70.2 ± 24 min; Duration of Anesthesia ± SEM (mice [6]; dose 25 mg/kg): 50.8 ± 14.2 min; Duration of Anesthesia ± SEM (mice [6]; dose 50 mg/kg): 124 ± 16.2 min; change in vivo at 400 mg/kg (mice [7]; Mus musculus, ip, 0.5 h, dose 400 mg/kg, read-out: Prolonged Time (%)): 105%; Time of Reaction to Pain Stimulus (s) ± SEM (mice [7]; dose 400 mg/kg): 40.0 ± 8.5 s; ED50 (mg/kg) ± SEM, writhing test (mice [8]; i.p., confidence limits in parentheses): 3.25 mg/kg; Mean no. of writhing ± SEM (mice [8]; i.p., dose 3.125 mg/kg): 17.7 ± 2.4; Mean no. of writhing ± SEM (mice [8]; i.p., dose 6.25 mg/kg): 6.0 ± 2.8
CCOc1nc(C)cc2c1C(=O)N(CCN1CCN(c3ccccc3OC)CC1)C2=O [Compound 12]		85 ± 4.2	11.8	34.5	389 ± 54	289 ± 72	> 2000	28.5	52.3	22.1 ± 2.7	26.2 ± 3.1	14.9 ± 2.01	13.9 ± 2.3	2.4 ± 0.3	59.2	76.2	180 ± 41	105 ± 48	9.7 ± 1.1	1.9 ± 0.4	
COc1nc(C)cc2c1C(=O)N(CN1CCN(c3cccc(Cl)c3)CC1)C2=O [Compound 13]		164 ± 28.7		7.93		406 ± 34	> 2000	4.07	11.6	17.9 ± 2.4	19.2 ± 1.8	14.8	14.1 ± 1.0	3.8 ± 1.9	32.2	59.6	299 ± 49	178 ± 32	5.9 ± 0.8	0.8 ± 0.1	
CCOc1nc(C)cc2c1C(=O)N(CN1CCN(c3cccc(Cl)c3)CC1)C2=O [Compound 14]		98 ± 13.3	10.7	3.5	394 ± 70	280 ± 46	> 2000	2.32	16.8	17.6 ± 2.4	20.1 ± 2.3	18.4	15.1 ± 4.2	5.9 ± 1.9	52.4	66	210 ± 40	150 ± 48	9.1 ± 0.8	1.8 ± 0.3	
COc1nc(C)cc2c1C(=O)N(CN1CCN(c3ccccc3Cl)CC1)C2=O [Compound 15]		89.1 ± 4.46	9.52	42.6	399 ± 71	253 ± 48	> 2000		15.7	17.0 ± 2.8	19.9 ± 3.9	19.2 ± 2.14	17.2 ± 3.2	2.9 ± 1.9	54	65.5	203 ± 39	152 ± 34	9.4 ± 2.2	1.4 ± 0.4	
